Source: US20220331303A1, “USE OF AN OREXIN 2 RECEPTOR AGONIST FOR THE TREATMENT OF EXCESSIVE SLEEPINESS” (Takeda Pharmaceutical Company Limited, priority 2019, published 2022)

Experiment: Plasma PK of Compound A after a single 9-hour IV infusion in sleep-deprived healthy male subjects
Format: in vivo, human
Procedure: This was a phase 1b, single-center, randomized, double-blind, double-dummy, placebo- and active-controlled, 4-period Williams design crossover study to evaluate the PK, PD, and safety of Compound A in sleep-deprived healthy volunteers. Compound A was administered as a 9-hour IV infusion.
Healthy adult male subjects aged 18 to 40 years, inclusive, who satisfied the inclusion and exclusion criteria were enrolled in the trial. On Day 1 of treatment period 1, eligible subjects were equally randomized to 4 treatment sequence groups (sequence 1 to 4) which defined the order of administration for Compound A LD, Compound A HD (both delivered as a 9-hour IV infusion), modafinil 300 mg, and placebo.
During the day before dosing on Day 1, participants were administered the KSS at scheduled timepoints. A practice MWT session was performed on Day 1 treatment period 1 (only once during the entire study) to familiarize subjects with the procedures. Study drug was administered in the clinic in the evening on Day 1 of each treatment period. Subjects underwent the MWT and KSS at specified timepoints after the start of the infusion. Subjects were required to stay awake between the MWT tests. Following completion of the IV infusion on Day 2, subjects underwent an additional MWT test. When the final MWT test and cognitive testing were completed, subjects were allowed to sleep (recovery sleep) for approximately 6 hours. PSG recording was collected during this time. Subjects were discharged from the unit after completion on Day 2 with continuing actigraphy upon discharge (to begin on Day −6 before the next treatment period). The interval between each subsequent treatment period was at least 7 days to ensure that the subject's circadian rhythm had returned to a normal cycle. Subject's vital signs, including BP, were monitored during the dosing and testing period. Blood samples for determination of Compound A plasma concentrations were collected at specified timepoints on Days 1 and 2 of each treatment period. Subjects completed the Columbia-Suicide Severity Rating Scale (C-SSRS) during screening, before study drug administration, and before discharge on Day 2 of each treatment period.
Plasma concentrations were tabulated, and descriptive statistics were calculated for each Compound A dose level and are listed in Tables 3-6 for Compound A. The mean plasma concentration versus time plots for Compound A are shown in FIG. 1.

[1] = 44 mg 9-h IV infusion, 0.17 h post infusion end
[2] = 44 mg 9-h IV infusion, 0.5 h post infusion end
[3] = 44 mg 9-h IV infusion, 1 h post infusion end
[4] = 44 mg 9-h IV infusion, 2 h post infusion end
[5] = 44 mg 9-h IV infusion, 3 h post infusion end
[6] = 44 mg 9-h IV infusion, 4 h post infusion end
[7] = 44 mg 9-h IV infusion, 6 h post infusion end
[8] = 44 mg 9-h IV infusion, 9 h post infusion end
[9] = 44 mg 9-h IV infusion, Discharge (post infusion end)
[10] = 44 mg [LD] single 9-hour IV infusion
[11] = 112 mg 9-h IV infusion, 0.17 h post infusion end
[12] = 112 mg 9-h IV infusion, 0.5 h post infusion end
[13] = 112 mg 9-h IV infusion, 1 h post infusion end
[14] = 112 mg 9-h IV infusion, 1 h post infusion start
[15] = 112 mg 9-h IV infusion, 2 h post infusion end
[16] = 112 mg 9-h IV infusion, 2 h post infusion start
[17] = 112 mg 9-h IV infusion, 4 h post infusion start
[18] = 112 mg 9-h IV infusion, 6 h post infusion start
[19] = 112 mg 9-h IV infusion, 9 h post infusion start
[20] = 112 mg 9-h IV infusion, Discharge (post infusion end)
[21] = 112 mg [HD] single 9-hour IV infusion

Plasma Concentration Mean [1]: 76.86 ng/mL
Plasma concentration (GM) [1]: 76.07 ng/mL
Plasma concentration (Median) [1]: 74.80 ng/mL
Plasma Concentration Mean [2]: 50.78 ng/mL
Plasma concentration (GM) [2]: 49.49 ng/mL
Plasma concentration (Median) [2]: 49.10 ng/mL
Plasma Concentration Mean [3]: 40.73 ng/mL
Plasma concentration (GM) [3]: 39.05 ng/mL
Plasma concentration (Median) [3]: 38.15 ng/mL
Plasma Concentration Mean [4]: 22.23 ng/mL
Plasma concentration (GM) [4]: 21.44 ng/mL
Plasma concentration (Median) [4]: 21.00 ng/mL
Plasma Concentration Mean [5]: 20.67 ng/mL
Plasma concentration (GM) [5]: 19.74 ng/mL
Plasma concentration (Median) [5]: 20.35 ng/mL
Plasma Concentration Mean [6]: 16.28 ng/mL
Plasma concentration (GM) [6]: 15.56 ng/mL
Plasma concentration (Median) [6]: 17.25 ng/mL
Plasma Concentration Mean [7]: 10.32 ng/mL
Plasma concentration (GM) [7]: 9.85 ng/mL
Plasma concentration (Median) [7]: 10.75 ng/mL
Plasma Concentration Mean [8]: 5.56 ng/mL
Plasma concentration (GM) [8]: 5.06 ng/mL
Plasma concentration (Median) [8]: 5.06 ng/mL
Plasma Concentration Mean [9]: 4.95 ng/mL
Plasma concentration (GM) [9]: 4.60 ng/mL
Plasma concentration (Median) [9]: 4.78 ng/mL
Ceoi (GM) [10]: 102.5 ng/mL
Ceoi (Mean) [10]: 103.4 ng/mL
Ceoi (Median) [10]: 101.0 ng/mL
t1/2z (Mean) [10]: 3.134 h
t1/2z (Median) [10]: 3.020 h
Plasma Concentration Mean [11]: 196.83 ng/mL
Plasma concentration (Median) [11]: 197.50 ng/mL
Plasma Concentration Mean [12]: 124.21 ng/mL
Plasma concentration (Median) [12]: 121.50 ng/mL
Plasma Concentration Mean [13]: 100.48 ng/mL
Plasma concentration (Median) [13]: 96.90 ng/mL
Plasma Concentration Mean [14]: 162.56 ng/mL
Plasma concentration (GM) [14]: 155.56 ng/mL
Plasma concentration (Median) [14]: 151.00 ng/mL
Plasma Concentration Mean [15]: 58.92 ng/mL
Plasma concentration (Median) [15]: 61.40 ng/mL
Plasma Concentration Mean [16]: 187.06 ng/mL
Plasma concentration (GM) [16]: 185.71 ng/mL
Plasma concentration (Median) [16]: 179.50 ng/mL
Plasma Concentration Mean (112 mg 9-h IV infusion, 3 h post infusion end): 53.01 ng/mL
Plasma Concentration Mean (112 mg 9-h IV infusion, 4 h post infusion end): 41.98 ng/mL
Plasma Concentration Mean [17]: 217.61 ng/mL
Plasma concentration (GM) [17]: 216.56 ng/mL
Plasma concentration (Median) [17]: 210.00 ng/mL
Plasma Concentration Mean (112 mg 9-h IV infusion, 6 h post infusion end): 24.24 ng/mL
Plasma Concentration Mean [18]: 234.06 ng/mL
Plasma concentration (GM) [18]: 232.92 ng/mL
Plasma concentration (Median) [18]: 229.50 ng/mL
Plasma Concentration Mean (112 mg 9-h IV infusion, 9 h post infusion end): 13.78 ng/mL
Plasma Concentration Mean [19]: 253.39 ng/mL
Plasma concentration (GM) [19]: 250.96 ng/mL
Plasma concentration (Median) [19]: 252.50 ng/mL
Plasma Concentration Mean [20]: 13.01 ng/mL
Plasma concentration (GM) [20]: 12.09 ng/mL
Plasma concentration (Median) [20]: 11.50 ng/mL
Ceoi (GM) [21]: 251.0 ng/mL
Ceoi (Mean) [21]: 253.4 ng/mL
Ceoi (Median) [21]: 252.5 ng/mL
t1/2z (Mean) [21]: 3.252 h
t1/2z (Median) [21]: 3.165 h
Compound: COC(=O)N1CCC[C@H](NS(C)(=O)=O)[C@@H]1CO[C@H]1CC[C@@H](c2ccccc2)CC1 [Compound A, methyl (2R,3S)-3-((methylsulfonyl)amino)-2-(((cis-4-phenylcyclohexyl)oxy)methyl)piperidine-1-carboxylate]
